Experimental data taken from PMC10415494, “Ga(III) pyridinecarboxylate complexes: potential analogues of the second generation of therapeutic Ga(III) complexes?” (Journal of Biological Inorganic Chemistry, 2023).
≈ marks a conversion by molar mass, not a printed value.

Legend:
[1] = Experimental: The stock solution of HPic and H2Dpic was prepared by dissolving in demineralized water (c(ligand) = 0.02 M). The gallium(III) ion solution was prepared from anhydrous gallium(III) nitrate (c(Ga^3+) = 0.05 M) and was standardized by back titration of excess of EDTA with zinc(II). Decarbonated potassium hydroxide solution (approx. 0.2 M) was used as a titrant that was standardized by potassium hydrogen phthalate (c(KHP) = 0.1 M). Standard inert electrolyte of nitric acid was used in all titrations (c(HNO3) = 0.03 M, I(HNO3/KNO3) = 0.1 M). Potentiometric measurements were carried out using a TitroLine 7000 dosage system with a BlueLine combination electrode (SI Analytics) in a glass vessel (5 mL) thermostated at 25 ± 0.1 °C at an ionic strength I(KNO3) = 0.1 M. Inert atmosphere was ensured by a constant flow of a nitrogen gas. Precise calibration of the electrode was carried out by the titration of 0.03 M HNO3 with 0.2 M KOH in the range –log[H^+] = 1.8–12.0, with the pH-meter yielding E values. The relation between E and –log[H^+] is expressed by Eq. (1) where the term E^0 contains the standard potentials of the electrode and the contribution of inert ions to the liquid-junction potential. The value S corresponds to the Nernstian slope, the value of which should be close to the theoretical value, and j1[H^+] and j2[OH^–] = j2Kw/[H^+] are contributions of the H^+ and OH^– ions, respectively, to the liquid-junction potential. The pKw value was 13.78 in Eq. (1).1 E=E^0-S-logH^++j1H^++j2Kw/H^+
The parameters j1 and j2 cause deviation from linear dependence between E and –log[H^+] only in strongly acidic and strongly alkaline solutions. The picolinic and dipicolinic acid protonation constants were determined with ligand concentration 0.004 M. The stability constants in the Ga-HPic and Ga-H2Dpic binary system were determined by the ligand concentrations 0.004 and the Ga^3+ concentration was 0.004, 0.002 and 0.001 M in dependence on the ligand to metal ratio.
The protonation constants β110, β210 are the concentration constants and are defined by β110 = [HL]/ [H][L], β210 = [H2L]/ [H]^2[L] (pK2 = logβ110, pK1 = logβ210- logβ110); the stability constants are defined by βrqp = [HrLqMp]/[H]^r[L]^q[M]^p. The equilibrium constants were obtained by fitting the titration data with OPIUM [23]. The following hydrolysis constants were used for the calculations: βpr = [Mp(OH)r^3−r][H]^r/[M]^p; log β11 = − 2.74; log β12 = − 7.0; log β13 = − 11.96; log β14 = − 15.52 [24].

[2] = test system: Staphylococcus aureus (S. aureus) CCM 3953; assay: Antimicrobial activity, macrodilution method (growth by A590); assay type: cell-based; conditions: for IC50: Bacteria, MHB, 37 °C, DMSO max 1.0 vol. %, read-out: IC50 S. aureus
Experimental: (§1) The antimicrobial activities of gallium(III) complexes GaPic, GaDpic, GaChel, GaCldpic, free ligands (HPic, H2Dpic, H2Chel, H2Cldpic) and positive controls (cefoxitin (C), ampicillin (A) and piperacillin (P)) were evaluated by macrodilution method using G^+ bacteria (Firmicutes) Staphylococcus aureus (S. aureus) CCM 3953 (Czech Collection of Microorganisms), G^− bacteria (γ-proteobacteria) Escherichia coli (E. coli) CCM 3988, Pseudomonas aeruginosa (P. aeruginosa) CCM 1959 (Czech Collection of Microorganisms) and the yeast Candida parapsilosis (C. parapsilosis) ATCC 22019 (American type culture collection). Cultures of bacteria (in Mueller–Hinton broth, MHB) and yeasts (in Sabouraud’s growth medium, SB) were incubated under shaking (250 rpm) at 37 °C. The growth of bacteria and yeasts was evaluated by measuring the absorbance of the growing cultures (A590) until the cultures reached the stationary growth phase. The effects of gallium(III) complexes on the growth of filamentous fungi Rhizopus oryzae (R. oryzae) CCM F-8284, Alternaria alternata (A. alternata) CCM F-128 and Microsporum gypseum (M. gypseum) CCM F-8342 (Czech Collection of Microorganisms) were observed by macrodilution method on solidified potato-dextrose growth medium (PDA). During culturing, the diameters of growing fungal colonies were measured at regular intervals. Briefly, the antimicrobial activity (bacteria and yeasts) gallium(III) complexes/ ligands were added to the microbial culture at the beginning of the cultivation-to the lag phase. Pure gallium(III) complexes/ligands were dissolved in DMSO. The final concentration of DMSO never exceeded 1.0 vol. % neither in control nor treated samples. Concentration of gallium(III) complexes used in experimental work for evaluation of antimicrobial activity was used in the range of 0.05–2 mM, for the free ligands in the range of 0.5–2.0 mM in all experiments. […] The IC50 values were evaluated from toxicity curves. All the obtained results of antimicrobial activity were compared to the activity of Ga(NO3)3.

[3] = test system: Escherichia coli (E. coli) CCM 3988; assay: as above; assay type: cell-based; conditions: for IC50: Bacteria, MHB, 37 °C, DMSO max 1.0 vol. %, read-out: IC50 E. coli
Experimental: as §1

[4] = test system: Pseudomonas aeruginosa (P. aeruginosa) CCM 1959; assay: as above; assay type: cell-based; conditions: Bacteria; MHB, 37 °C; DMSO max 1.0 vol. %; read-out: IC50 P. aeruginosa
Experimental: as §1

[5] = test system: Candida parapsilosis (C. parapsilosis) ATCC 22019; assay: Antimicrobial activity, macrodilution method (yeast, growth by A590); assay type: cell-based; conditions: Yeast; Sabouraud's growth medium, 37 °C; read-out: IC50 C. parapsilosis
Experimental: as §1

[6] = test system: Alternaria alternata (A. alternata) CCM F-128; assay: Growth of filamentous fungi, macrodilution method on solidified PDA (colony diameter); assay type: cell-based; conditions: Filamentous fungi; solidified potato-dextrose growth medium; read-out: IC50 A. alternata
Experimental: as §1

[7] = test system: Microsporum gypseum (M. gypseum) CCM F-8342; assay: as above; assay type: cell-based; conditions: Filamentous fungi; solidified potato-dextrose growth medium; read-out: IC50 M. gypseum
Experimental: as §1

[8] = test system: Rhizopus oryzae (R. oryzae) CCM F-8284; assay: as above; assay type: cell-based; conditions: solidified potato-dextrose growth medium; read-out: IC50 R. oryzae
Experimental: as §1

[9] = test system: A2058 (human metastatic melanoma); assay: MTS antiproliferative assay
Experimental: (§2) Cell culture the cell lines A2058 (human metastatic melanoma), BLM (human metastatic melanoma), HCT116 (human colorectal carcinoma), HeLa (human cervical adenocarcinoma), Jurkat (human leukaemic T cell lymphoma). […] Cells were maintained in standard conditions with an atmosphere containing 5% CO2 at 37 °C.
(§3) The antiproliferative activity of Ga(III) complexes GaPic, GaDpic, GaChel, GaCldpic, free ligands (HPic, H2Dpic, H2Chel, H2Cldpic) and cisplatin (cisPt) were evaluated by colorimetric microculture MTS (3-(4,5-dimethylthiazol-2-yl)-5-(3-carboxymethoxyphenyl)-2-(4-sulfophenyl)-2H tetrazolium) assay (Promega, Madison, WI, USA). Cancer and non-cancer cells were seeded at density 5 × 10^3 cells/well in 96-well polystyrene microplates. Twenty-four hours after cell seeding, different concentrations (1.0—100.0 µM) of the compounds were tested. After 72 h of incubation, 10 µL of MTS was added to each well. After an additional 2 h, cell proliferation was evaluated by measuring of absorbance at wavelength 490 nm using the automated Cytation™ 3 Cell Imaging Multi-Mode Reader (Biotek, Winooski, VT, USA). The absorbance of control wells was taken as 100%, and the results were expressed as a percent of untreated control. IC50 values were calculated from MTS analyses.

[10] = test system: HCT116 (human colorectal carcinoma); assay: MTS antiproliferative assay
Experimental: as §2, §3

[11] = test system: HeLa (human cervical adenocarcinoma); assay: MTS antiproliferative assay
Experimental: as §2, §3

[12] = test system: Jurkat (human leukaemic T cell lymphoma); assay: MTS antiproliferative assay
Experimental: as §2, §3

[13] = test system: MDA-MB-231 (human mammary gland adenocarcinoma); assay: MTS antiproliferative assay
Experimental: as §2, §3

[14] = test system: PaTu 8902 (human pancreatic adenocarcinoma); assay: MTS antiproliferative assay
Experimental: as §2, §3

[15] = test system: human dermal fibroblasts (HDF); assay: in vitro
Experimental: as §2, §3

[16] = target: T1, bovine serum albumin (BSA) (Bos taurus, UniProt P02769); assay: BSA fluorescence quenching (Stern-Volmer); assay type: binding; conditions: 0.01 M PBS buffer pH 7.4, 25 °C, λex = 280 nm
T1 construct: purchased Sigma-Aldrich Chemicals
T1 sequence (P02769 25-607): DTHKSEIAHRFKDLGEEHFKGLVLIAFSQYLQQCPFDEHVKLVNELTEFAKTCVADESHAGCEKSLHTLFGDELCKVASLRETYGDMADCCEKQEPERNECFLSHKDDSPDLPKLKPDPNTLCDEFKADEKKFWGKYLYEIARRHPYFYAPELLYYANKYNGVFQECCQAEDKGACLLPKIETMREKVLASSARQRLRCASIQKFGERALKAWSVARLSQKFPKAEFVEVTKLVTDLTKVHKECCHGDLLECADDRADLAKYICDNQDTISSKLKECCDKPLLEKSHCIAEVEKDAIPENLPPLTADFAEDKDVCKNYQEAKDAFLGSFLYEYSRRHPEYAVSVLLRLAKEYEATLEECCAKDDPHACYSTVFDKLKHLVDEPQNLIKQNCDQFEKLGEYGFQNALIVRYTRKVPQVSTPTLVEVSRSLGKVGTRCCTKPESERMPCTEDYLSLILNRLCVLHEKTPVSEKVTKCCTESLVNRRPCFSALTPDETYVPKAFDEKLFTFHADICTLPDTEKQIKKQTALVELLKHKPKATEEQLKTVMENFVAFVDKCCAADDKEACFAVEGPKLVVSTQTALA
Experimental: Fluorescence measurements were carried out on a Varian Cary Eclipse spectrofluorometer. The quenching studies of BSA with the Ga(III) complexes were investigated to determine whether they were able to quench fluorescence of BSA. All measurements were performed at 25 °C in 0.01 M PBS buffer (pH 7.4). The fluorescence spectra were measured at an excitation wavelength of 280 nm, with a slit width of 10 nm for the excitation and emission beams, in the range of 300–450 nm and analysed according to the classical Stern–Volmer Equation: F0/F=1+KSVQ where F0 and F are the fluorescence intensities in the absence and the presence of the quencher, respectively, KSV is the Stern–Volmer constant, and [Q] is the concentration of quencher.

[17] = Complex stability in biological testing medium by time-dependent 1H NMR; assay type: physicochemical; conditions: 300 K, over 96 h
Experimental: Nuclear magnetic resonance (NMR) data were collected on a Varian VNMRS 600 spectrometer operating at 599.87 MHz for ^1H. The concentration of all samples was approximately 3 mg/0.6 mL of 1% DMSO-d6/D2O. For comparison, the spectra of pure acids were also measured, while the pH of the solution of acids was adjusted to the same value as the solution of the complexes. The chemical shifts were referenced to the TSP (3-(trimethylsilyl)propionic-2,2,3,3-d4 acid sodium salt) peak (^1H NMR 0.00 ppm). The NMR data were recorded at 300 K, with chemical shifts δ reported in parts per million and coupling constants J in Hertz. All data were analysed using MestReNova 12.0.0 (2017) software. The stability in 1% DMSO-d6/D2O was determined for all samples. […]

Question: For O=C([O-])c1ccccn1.O=C([O-])c1ccccn1.[Ga+3] [[Ga(Pic)2]^+], which “stability constant logβ021” value [1] is on record?
Answer: 16.23(6)

Question: With CO[C@@]1(NC(=O)Cc2cccs2)C(=O)N2C(C(=O)O)=C(COC(N)=O)CS[C@@H]21 [cefoxitin] as the molecule, how does the MIC ([2]; Staphylococcus aureus, CCM3953, positive control, read-out: MIC100 for S. aureus) read?
Answer: 0.74 µM (≈ 0.316 µg/mL)

Question: For O=[N+]([O-])[O-].O=[N+]([O-])[O-].O=[N+]([O-])[O-].[Ga+3] [Ga(NO3)3, gallium(III) nitrate], which IC50 [3] is on record?
Answer: > 500 µM

Question: What about the IC50 [4] of the same molecule?
Answer: > 500 µM

Question: And the IC50 [2]?
Answer: > 500 µM

Question: And the IC50 [5]?
Answer: > 500 µM

Question: What about the IC50 [6] of the same molecule?
Answer: > 500 µM

Question: And the IC50 [7]?
Answer: > 500 µM

Question: And the IC50 [8]?
Answer: > 500 µM

Question: Which results are given for O.O=C([O-])c1cccc(C(=O)[O-])n1.O=C([O-])c1cccc(C(=O)[O-])n1.[Ga+3].[OH3+] [GaDpic, H3O[Ga(Dpic)2]·H2O]?
Answer: IC50 [3]: > 2000 µM; partial inhibition of E. coli growth ([3]; concentration not given): 30%; IC50 [2]: > 2000 µM; inhibition of S. aureus growth ([2]; complex at 2 mM): 24%; IC50 [5]: > 2000 µM; IC50 [6]: > 2000 µM; IC50 [7]: > 2000 µM; IC50 [8]: > 2000 µM; IC50 [9]: 287 ± 59.3 µM; IC50 [10]: 1240 ± 58.9 µM; IC50 [11]: 1140 ± 135 µM; IC50 [12]: 325 ± 34.9 µM; IC50 [13]: 308 ± 67.8 µM; IC50 [14]: 509 ± 32.6 µM; IC50 [15]: 288 ± 26.6 µM; Stern–Volmer binding constant Ksv BSA [16]: 68500 M⁻¹; stability in 1% DMSO-d6/D2O solution [17]: stable

Question: Which “stability constant logβ021” value [1] does the source give for O=C([O-])c1cccc(C(=O)[O-])n1.O=C([O-])c1cccc(C(=O)[O-])n1.[Ga+3] [[Ga(Dpic)2]^−] here?
Answer: 15.42(9)
